Data from patent US7132505B1, “Polypeptide inhibiting a proton-gated Na+ channel, a nucleic acid coding for such polypeptide and a method of manufacturing an ASIC1a channel blocker” (Centre National de la Recherche Scientifique - CNRS, dated 2006).
No end group written: not given here.

How the values were obtained:
[1] = target: T1, ASIC1a channel (Rattus norvegicus, UniProt P55926); assay: Amiloride block of ASIC1a channel; format: cell-based; details: IC50 10 μM versus 0.9 nM
T1 sequence (P55926 1-526): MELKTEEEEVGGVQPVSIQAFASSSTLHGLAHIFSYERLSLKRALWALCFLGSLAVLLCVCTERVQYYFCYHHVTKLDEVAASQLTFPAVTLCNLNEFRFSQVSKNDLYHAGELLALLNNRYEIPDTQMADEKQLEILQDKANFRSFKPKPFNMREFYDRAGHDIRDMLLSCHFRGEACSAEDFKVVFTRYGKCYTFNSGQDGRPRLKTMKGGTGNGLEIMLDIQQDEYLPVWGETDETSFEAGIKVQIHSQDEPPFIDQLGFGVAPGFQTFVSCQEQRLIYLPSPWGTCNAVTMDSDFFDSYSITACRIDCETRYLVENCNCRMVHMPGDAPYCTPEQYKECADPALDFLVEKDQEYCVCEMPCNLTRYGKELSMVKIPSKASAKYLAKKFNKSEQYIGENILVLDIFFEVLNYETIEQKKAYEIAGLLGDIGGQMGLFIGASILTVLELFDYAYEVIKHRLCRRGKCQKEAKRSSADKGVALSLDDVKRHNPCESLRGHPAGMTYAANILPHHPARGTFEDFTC

[2] = tested on: ASIC1a, ASIC1b, ASIC2a, and ASIC3; details: cited from earlier work
[3] = target: T1, ASIC1a channel; details: read-out: IC50 for block of ASIC1a channel; cited from earlier work
[4] = target: ASIC1a channel (homomultimer)
[5] = target: ASIC1a channel (homomultimer); remark: listed apart in the source
[6] = target: T2, native PcTX1-sensitive H+-gated channel of rat dorsal root ganglion neurons (suggested by the filing to be a … (rat, UniProt P55926)); assay: cell-based or functional assay
T2 sequence: T1 sequence (P55926 1-526)

For N=C(N)NC(=O)c1nc(Cl)c(N)nc1N [amiloride], which “affinity for ASIC1a relative to PcTX1 (fold lower)” value [1] is on record?
The value was 10^4.

What about the “block of transient current generated by ASIC1a, ASIC1b, ASIC2a, and ASIC3” value [2] of the same molecule?
Its value is “blocks all transient expression of current”.

What about the IC50 [3] of the same molecule?
Its IC50 is 10 µM.

For “crude Psalmopoeus cambridgei venom (pool or library)”, which ASIC1a current in Xenopus oocytes [4] is on record?
The ASIC1a current in Xenopus oocytes was 90%.

What does the source list for EDCIPKWKGCVNRHGDCCEGLECWKRRRSFEVCVPKTPKT-OH (disulfide (positions not given here)) [Psalmotoxin 1 (PcTX1)]?
IC50 of block of the ASIC1a current recorded at pH 6 in Xenopus oocytes [5]: 0.9 nM; IC50 of inhibition of the H+-gated current in the PcTX1-sensitive population of DRG neurons [6]: 0.0007 µM
